Test results taken from patent US7662810B2, “2-arylmethylazetidine carbapenem derivatives and preparation thereof” (Korea Research Institute of Chemical Technology, priority 2004, dated 2010).
Converted amounts (≈) assume the structure as drawn.

Columns and labels:
[1] = system: Staphylococcus aureus 208E; test: Measurement of Minimum Inhibitory Concentration (MIC), MRSA; format: cell-based
Method: (§1) The antibacterial activities of the compounds of the present invention prepared in the above Examples against Gram-positive and Gram-negative bacteria, MRSA and QRS were tested as follows.
(§2) Respective bacterial strains were inoculated into 3 ml of Fleisch extract broth (beef extract 1%, peptone 1%, NaCl 0.3%, Na2HPO4.12H2O 0.2%, pH 7.4-7.5. 10% horse serum was supplemented for Streptococcus pyogenes and S. facium) and cultured on a shaking incubator at 37° C. for 18 hours. About 10^4 CFU/spot of the cultured bacterial strains were inoculated onto Müller-Hinton agar plates containing serial double dilutions (final concentration of 0.002 to 100 μg/ml) of a test compound employing an automatic inoculator (Dynatech, USA), and incubated at 37° C. for 18 hours. When the incubation was completed, the minimum inhibitory concentration was determined. Meropenem (Yuhan corporation, Korea) and vancomycin (Cj Inco., Korea) were used as standard antibiotics, respectively.

[2] = system: Staphylococcus aureus 692E; test: as above; format: cell-based
Method: as §1, §2

[3] = system: Staphylococcus aureus 88E; test: as above; format: cell-based
Method: as §1, §2

[4] = system: Staphylococcus aureus 121E; test: as above; format: cell-based
Method: as §1, §2

[5] = system: Staphylococcus aureus 697E; test: as above; format: cell-based
Method: as §1, §2

[6] = system: Staphylococcus aureus 256E; test: as above; format: cell-based
Method: as §1, §2

[7] = system: Staphylococcus aureus 694E; test: as above; format: cell-based
Method: as §1, §2

[8] = system: Staphylococcus aureus 695E; test: as above; format: cell-based
Method: as §1, §2

[9] = system: Staphylococcus aureus 693E; test: as above; format: cell-based
Method: as §1, §2

[10] = system: Staphylococcus aureus 690E; test: as above; format: cell-based
Method: as §1, §2

[11] = system: Staphylococcus aureus 241; test: Measurement of Minimum Inhibitory Concentration (MIC), QRS; format: cell-based
Method: as §1, §2

[12] = system: Staphylococcus aureus 179; test: as above; format: cell-based
Method: as §1, §2

[13] = system: Staphylococcus epidermidis 178; test: as above; format: cell-based
Method: as §1, §2

[14] = system: Staphylococcus epidermidis 291; test: as above; format: cell-based
Method: as §1, §2

[15] = system: Staphylococcus aureus 293; test: as above; format: cell-based
Method: as §1, §2

[16] = molecular target: T1, Dihydropeptidase-1 (DHP-1) (Sus scrofa, UniProt P22412)
T1 sequence (P22412 17-384): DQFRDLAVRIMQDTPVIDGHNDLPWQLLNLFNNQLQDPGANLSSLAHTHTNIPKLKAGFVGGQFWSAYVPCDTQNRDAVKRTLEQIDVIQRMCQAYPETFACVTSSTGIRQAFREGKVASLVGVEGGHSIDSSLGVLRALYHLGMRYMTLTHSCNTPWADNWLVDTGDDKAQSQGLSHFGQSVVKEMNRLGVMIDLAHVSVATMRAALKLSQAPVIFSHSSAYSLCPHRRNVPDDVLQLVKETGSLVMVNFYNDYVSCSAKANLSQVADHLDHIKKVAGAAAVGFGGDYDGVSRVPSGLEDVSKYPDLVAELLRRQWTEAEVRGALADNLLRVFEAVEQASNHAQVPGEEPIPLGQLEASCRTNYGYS
Method: The rate of degradation of the inventive compounds by the action of DHP-1 enzyme extracted from hog kidney was determined as follow.
0.2 unit of the enzyme was allowed to react with the above solution at 30° C., and the absorbance at 299 nm of the remaining medicament was measured to determine the degradation rate. The absorbance was measured at 0, 0.5, 1, 2 and 4 hour points, and T1/2, the time when the concentration of the medicament become the half, was obtained by regression analysis.

Escherichia coli 078 = test: Measurement of Minimum Inhibitory Concentration (MIC); format: cell-based
Method: as §1, §2

[17] = system: Enterobacter cloacae P 99; test: as above; format: cell-based
Method: as §1, §2

[18] = system: Staphylococcus faecium MD 8b; test: as above; format: cell-based
Method: as §1, §2

[19] = system: Klebsiella aerogenes 1522 E; test: as above; format: cell-based
Method: as §1, §2

[20] = system: Klebsiella oxytoca 1082 E; test: as above; format: cell-based
Method: as §1, §2

[21] = system: Staphylococcus aureus 503; test: as above; format: cell-based
Method: as §1, §2

Escherichia coli 1507 E = test: as above; format: cell-based
Method: as §1, §2

[22] = system: Staphylococcus pyogenes 77A; test: as above; format: cell-based
Method: as §1, §2

[23] = system: Staphylococcus aureus 285; test: as above; format: cell-based
Method: as §1, §2

[24] = system: Enterobacter cloacae 1321 E; test: as above; format: cell-based
Method: as §1, §2

Escherichia coli DC 2 = test: as above; format: cell-based
Method: as §1, §2

Escherichia coli DC 0 = test: as above; format: cell-based
Method: as §1, §2

[25] = system: Salmonella typhimurium 179; test: as above; format: cell-based
Method: as §1, §2

[26] = system: Staphylococcus pyogenes 308A; test: as above; format: cell-based
Method: as §1, §2

Escherichia coli TEM = test: as above; format: cell-based
Method: as §1, §2

## COc1ccccc1CN1CC(SC2=C(C(=O)[O-])N3C(=O)[C@H]([C@@H](C)O)[C@H]3[C@H]2C)C1.[K+] [Exam. 16, Potassium(1R,5S,6S)-2-[1-(2-methoxybenzyl)-azetidine-3-yl-thio]-6-[(1R)-1-hydroxylethyl]-1-methylcarbapen-2-em-3-carboxylate]
[1]; Staphylococcus aureus 208E
  MIC: 0.025 mg/L
[2]; Staphylococcus aureus 692E
  MIC: 0.049 mg/L
[3]; Staphylococcus aureus 88E
  MIC: 0.025 mg/L
[4]; Staphylococcus aureus 121E
  MIC: 0.025 mg/L
[5]; Staphylococcus aureus 697E
  MIC: 0.025 mg/L
[6]; Staphylococcus aureus 256E
  MIC: 0.025 mg/L
[7]; Staphylococcus aureus 694E
  MIC: 0.049 mg/L
[8]; Staphylococcus aureus 695E
  MIC: 0.049 mg/L
[9]; Staphylococcus aureus 693E
  MIC: 1.563 mg/L
[10]; Staphylococcus aureus 690E
  MIC: 0.195 mg/L
[11]; QRS, Staphylococcus aureus 241
  MIC: 0.025 mg/L
[12]; QRS, Staphylococcus aureus 179
  MIC: 0.049 mg/L
[13]; QRS, Staphylococcus epidermidis 178
  MIC: 0.195 mg/L
[14]; QRS, Staphylococcus epidermidis 291
  MIC: 0.391 mg/L
[15]; QRS, Staphylococcus aureus 293
  MIC: 0.098 mg/L
[16]
  T1/2 (time when the concentration of the medicament become the half): 200.91
  stability against hydrolysis by DHP-1 (in words): very stable
Escherichia coli 078
  MIC: 0.098 mg/L
[17]
  MIC: 0.391 mg/L
[18]; Staphylococcus faecium MD 8b
  MIC: 1.563 mg/L
[19]
  MIC: 0.391 mg/L
[20]
  MIC: 0.098 mg/L
[21]
  MIC: 0.013 mg/L
Escherichia coli 1507 E
  MIC: 0.195 mg/L
[22]; Staphylococcus pyogenes 77A
  MIC: 0.002 mg/L
[23]
  MIC: 0.025 mg/L
[24]
  MIC: 0.098 mg/L
Escherichia coli DC 2
  MIC: 0.049 mg/L
Escherichia coli DC 0
  MIC: 0.781 mg/L
[25]; Salmonella typhimurium 179
  MIC: 0.098 mg/L
[26]; Staphylococcus pyogenes 308A
  MIC: 0.002 mg/L
Escherichia coli TEM; Escherichia coli TEM
  MIC: 0.195 mg/L

## COc1cccc(CN2CC(SC3=C(C(=O)[O-])N4C(=O)[C@H]([C@@H](C)O)[C@H]4[C@H]3C)C2)c1.[K+] [Exam. 15, Potassium(1R,5S,6S)-2-[1-(3-methoxybenzyl)-azetidine-3-yl-thio]-6-[(1R)-1-hydroxylethyl]-1-methylcarbapen-2-em-3-carboxylate]
[16]
  Relative T1/2: 1.54
  T1/2 (time when the concentration of the medicament become the half): 28.16

## CC(c1ccc(Br)cc1)N1CC(SC2=C(C(=O)[O-])N3C(=O)[C@H]([C@@H](C)O)[C@H]3[C@H]2C)C1.[K+] (stereo partly drawn) [Exam. 24, Potassium(1R,5S,6S)-2-{1-[1-(4-bromophenyl)ethyl]-azetidine-3-yl-thio}-6-[(1R)-1-hydroxylethyl]-1-methylcarbapen-2-em-3-carboxylate]
[16]
  Relative T1/2: 1.08
  T1/2 (time when the concentration of the medicament become the half): 19.71

## C[C@H](c1ccccc1)N1CC(SC2=C(C(=O)[O-])N3C(=O)[C@H]([C@@H](C)O)[C@H]3[C@H]2C)C1.[K+] [Exam. 21, Potassium(1R,5S,6S)-2-{1-[(1R)-1-phenylethyl]-azetidine-3-yl-thio}-6-[(1R)-1-hydroxylethyl]-1-methylcarbapen-2-em-3-carboxylate]
[16]
  Relative T1/2: 1.88
  T1/2 (time when the concentration of the medicament become the half): 38.43

## C[C@@H](O)[C@H]1C(=O)N2C(C(=O)[O-])=C(SC3CN(Cc4ccc(Cl)cc4)C3)[C@H](C)[C@H]12.[K+] [Exam. 18, Potassium(1R,5S,6S)-2-[1-(4-chlorobenzyl)-azetidine-3-yl-thio]-6-[(1R)-1-hydroxylethyl]-1-methylcarbapen-2-em-3-carboxylate]
[16]
  Relative T1/2: 0.84
  T1/2 (time when the concentration of the medicament become the half): 15.36

## CN[C@H](CC(C)C)C(=O)N[C@H]1C(=O)N[C@@H](CC(N)=O)C(=O)N[C@H]2C(=O)N[C@H]3C(=O)N[C@H](C(=O)N[C@H](C(=O)O)c4cc(O)cc(O)c4-c4cc3ccc4O)[C@H](O)c3ccc(c(Cl)c3)Oc3cc2cc(c3O[C@@H]2O[C@H](CO)[C@@H](O)[C@H](O)[C@H]2O[C@H]2C[C@](C)(N)[C@H](O)[C@H](C)O2)Oc2ccc(cc2Cl)[C@H]1O [Vancomycin, vancomycin, reference compound]
[1]; Staphylococcus aureus
  MIC: 0.781 mg/L (≈ 0.539 µM)
[2]; Staphylococcus aureus
  MIC: 0.781 mg/L (≈ 0.539 µM)
[3]; Staphylococcus aureus
  MIC: 0.781 mg/L (≈ 0.539 µM)
[4]; Staphylococcus aureus
  MIC: 0.781 mg/L (≈ 0.539 µM)
[5]; Staphylococcus aureus
  MIC: 0.781 mg/L (≈ 0.539 µM)
[6]; Staphylococcus aureus
  MIC: 0.781 mg/L (≈ 0.539 µM)
[7]; Staphylococcus aureus
  MIC: 1.56 mg/L (≈ 1.08 µM)
[8]; Staphylococcus aureus
  MIC: 1.56 mg/L (≈ 1.08 µM)
[9]; Staphylococcus aureus
  MIC: 1.56 mg/L (≈ 1.08 µM)
[10]; Staphylococcus aureus
  MIC: 0.391 mg/L (≈ 0.27 µM)
[11]; Staphylococcus aureus, 241
  MIC: 0.781 mg/L (≈ 0.539 µM)
[12]; Staphylococcus aureus, 179
  MIC: 0.781 mg/L (≈ 0.539 µM)
[13]; Staphylococcus epidermidis, 178
  MIC: 1.56 mg/L (≈ 1.08 µM)
[14]; Staphylococcus epidermidis, 291
  MIC: 1.56 mg/L (≈ 1.08 µM)
[15]; Staphylococcus aureus, 293
  MIC: 0.781 mg/L (≈ 0.539 µM)
Escherichia coli 078
  MIC: 100 mg/L (≈ 69 µM)
[17]
  MIC: 100 mg/L (≈ 69 µM)
[18]; Staphylococcus, MD8B
  MIC: 0.391 mg/L (≈ 0.27 µM)
[19]
  MIC: 100 mg/L (≈ 69 µM)
[20]
  MIC: 100 mg/L (≈ 69 µM)
[21]
  MIC: 0.391 mg/L (≈ 0.27 µM)
Escherichia coli 1507 E
  MIC: 100 mg/L (≈ 69 µM)
[22]; Staphylococcus aureus, 77A
  MIC: 0.391 mg/L (≈ 0.27 µM)
[23]
  MIC: 0.391 mg/L (≈ 0.27 µM)
[24]
  MIC: 100 mg/L (≈ 69 µM)
Escherichia coli DC 2
  MIC: 50 mg/L (≈ 34.5 µM)
Escherichia coli DC 0
  MIC: 100 mg/L (≈ 69 µM)
[25]; Salmonella enterica, TYPHIMURIUM
  MIC: 100 mg/L (≈ 69 µM)
[26]; Staphylococcus aureus, 308A
  MIC: 0.781 mg/L (≈ 0.539 µM)
Escherichia coli TEM; Escherichia coli
  MIC: 100 mg/L (≈ 69 µM)

## C[C@@H](O)[C@H]1C(=O)N2C(C(=O)[O-])=C(SC3CN(Cc4cccc(C(F)(F)F)c4)C3)[C@H](C)[C@H]12.[K+] [Exam. 20, Potassium(1R,5S,6S)-2-[1-(3-trifluoromethylbenzyl)-azetidine-3-yl-thio]-6-[(1R)-1-hydroxylethyl]-1-methylcarbapen-2-em-3-carboxylate]
[16]
  Relative T1/2: 0.88
  T1/2 (time when the concentration of the medicament become the half): 16.03

## Cc1ccc(CN2CC(SC3=C(C(=O)[O-])N4C(=O)[C@H]([C@@H](C)O)[C@H]4[C@H]3C)C2)cc1.[K+] [Exam. 23, Potassium(1R,5S,6S)-2-[1-(4-methylbenzyl)-azetidine-3-yl-thio]-6-[(1R)-1-hydroxylethyl]-1-methylcarbapen-2-em-3-carboxylate]
[16]
  Relative T1/2: 1.38
  T1/2 (time when the concentration of the medicament become the half): 25.24
